The numbers were not newly measured in patent US6700032B1, “Wound care management” (Leatherite Pty Limited, priority 1996, dated 2004), which cites them from elsewhere.

For the series the following is noted: recommended concentrations.

Regarding “2,4,4′-trichloro-2′-hydroxy diphenyl ether [Triclosan]”, the toxicological testing result is listed as “safe at recommended concentrations”.
